Patent US20230115945A1, “AMINOPYRIMIDINE COMPOUNDS” (TYRA BIOSCIENCES, INC., priority 2019, published 2023)

What was measured:
[1] = test system: RT112/84 cells (Bladder Cancer, FGFR3-TACC3 fusion); experiment: Cancer cell line cell viability assay, RT112/84; assay type: cell-based; conditions: Homo sapiens, 72 hours, Cell Titer-Glo 2.0, read-out: Cancer Cell Viability Assays RT112/84 (IC50 nM)
From the text: (§1) [table] To detect the change of intracellular ATP by Cell Titer-Glo® and to evaluate the inhibitory effect of the compounds on cancer cell lines by determining the in vitro IC50 value of the compounds. Cell Titer-Glo® 2.0 Luminescent cell viability assay reagent was purchased from Promega (Madison, Wis.). RT112/84, SNU-16, and KG-1 cell lines were purchased from American Type Culture Collection (Manassas, Va.). UM-UC-14 cell line was purchased from Sigma (St. Louis, Mo.). RT112/84, UM-UC-14, SNU-16, and KG-1 cells were cultured in RPMI1640 media supplemented with 10% fetal bovine serum. Cultures were maintained at 37° C. in a humidified atmosphere of 5% CO2 and 95% air. Cell Viability Assay Procedure: Cells were plated in 96-well clear bottom/white plates (Corning #3903) at 10,000 cells/well in 100 μl of media, incubated overnight. The next day, test compound DMSO stock solutions were made at 10 mM and 2 μM final concentration. Compounds were then added to cells in a 9-dose, […] dilution series starting at 30 μM with an HP 300e Digital Dispenser (each dose was applied in triplicate). DMSO was backfilled to each well up to 301 nL total volume of test compound+DMSO, and a total of 301 nL DMSO was added to a control/no test compound well in triplicate. The cells in cell culture plates were incubated with the compounds at 37° C. and 5% CO2 for 72 hours. Then 50 μl of Cell Titer Glo 2.0 reagent was added to each well of the cell culture plates. The contents were covered from light and mixed on an orbital shaker at room temperature for 10 min. Luminescence was recorded by a Synergy H1 Microplate Reader (Biotek, Winooski, Vt.). Cells were assessed as a percentage of DMSO only treated control cells. Curves were plotted and IC50 values were calculated using the GraphPad Prism 8 program based on a sigmoidal dose-response equation (4 parameter).

FGFR3 = target: T1, FGFR3 (Homo sapiens, UniProt P22607); experiment: Kinase binding assay (Kd), FGFR3; conditions: 11-point 3-fold dilution, qPCR readout
T1 construct: made in house; host or cells: E. coli host derived from BL21, infected with T7 phage
Method in brief: (§2)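 Kinases expressed as T7 phage fusions are mixed with ligand-coated magnetic beads and compound (0.9% DMSO), then shaken 1 h at room temperature. After washing, bound kinase is eluted with free ligand for 30 min and measured by qPCR; Kd is obtained by Hill-equation fitting.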

FGFR2 = target: T2, FGFR2 (Homo sapiens, UniProt P21802); experiment: Kinase binding assay (Kd), FGFR2; conditions: 11-point 3-fold dilution, qPCR readout
T2 construct: made in house; host or cells: E. coli host derived from BL21, infected with T7 phage
Method in brief: as §2

[2] = test system: SNU-16 cells (Gastric Carcinoma, FGFR2 amplification); experiment: Cancer cell line cell viability assay, SNU-16; assay type: cell-based; conditions: Homo sapiens, 72 hours, Cell Titer-Glo 2.0, read-out: Cancer Cell Viability Assays SNU-16 (IC50 nM)
From the text: as §1

FGFR1 = target: T3, FGFR1 (Homo sapiens, UniProt P11362); experiment: Kinase binding assay (Kd), FGFR1; conditions: 11-point 3-fold dilution, qPCR readout
T3 construct: made in house; host or cells: E. coli host derived from BL21, infected with T7 phage
Method in brief: as §2

FGFR4 = target: T4, FGFR4 (Homo sapiens, UniProt P22455); experiment: Kinase binding assay (Kd), FGFR4; conditions: 11-point 3-fold dilution, qPCR readout
T4 construct: made in house; host or cells: E. coli host derived from BL21, infected with T7 phage
Method in brief: as §2

FGFR3 (V555M) = target: T5, FGFR3 (V555M) (Homo sapiens, UniProt P22607, V555M); experiment: Kinase binding assay (Kd), FGFR3 (V555M); conditions: 11-point 3-fold dilution, qPCR readout
T5 construct: made in house; host or cells: E. coli host derived from BL21, infected with T7 phage
Method in brief: as §2

T1 sequence (P22607 23-806): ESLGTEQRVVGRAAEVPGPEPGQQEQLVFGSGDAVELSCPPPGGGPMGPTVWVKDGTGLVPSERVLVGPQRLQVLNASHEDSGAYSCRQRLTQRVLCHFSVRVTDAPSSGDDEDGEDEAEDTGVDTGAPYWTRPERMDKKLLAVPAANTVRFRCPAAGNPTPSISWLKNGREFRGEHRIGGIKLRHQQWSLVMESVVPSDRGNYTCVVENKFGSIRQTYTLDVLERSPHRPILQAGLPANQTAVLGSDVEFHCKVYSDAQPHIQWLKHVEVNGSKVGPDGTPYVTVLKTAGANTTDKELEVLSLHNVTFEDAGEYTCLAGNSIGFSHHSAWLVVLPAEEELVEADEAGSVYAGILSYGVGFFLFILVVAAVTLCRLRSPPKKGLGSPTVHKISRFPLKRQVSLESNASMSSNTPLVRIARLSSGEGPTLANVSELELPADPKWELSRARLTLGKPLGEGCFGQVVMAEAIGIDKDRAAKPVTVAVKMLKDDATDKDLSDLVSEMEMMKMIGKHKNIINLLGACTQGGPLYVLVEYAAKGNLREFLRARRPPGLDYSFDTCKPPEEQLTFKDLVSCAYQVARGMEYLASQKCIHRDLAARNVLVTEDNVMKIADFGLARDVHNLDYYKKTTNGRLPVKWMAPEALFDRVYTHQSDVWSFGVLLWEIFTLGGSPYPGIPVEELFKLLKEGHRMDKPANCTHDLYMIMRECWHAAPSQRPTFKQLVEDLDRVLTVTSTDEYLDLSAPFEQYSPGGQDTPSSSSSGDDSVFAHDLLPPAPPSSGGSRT
T3 sequence (P11362 22-822): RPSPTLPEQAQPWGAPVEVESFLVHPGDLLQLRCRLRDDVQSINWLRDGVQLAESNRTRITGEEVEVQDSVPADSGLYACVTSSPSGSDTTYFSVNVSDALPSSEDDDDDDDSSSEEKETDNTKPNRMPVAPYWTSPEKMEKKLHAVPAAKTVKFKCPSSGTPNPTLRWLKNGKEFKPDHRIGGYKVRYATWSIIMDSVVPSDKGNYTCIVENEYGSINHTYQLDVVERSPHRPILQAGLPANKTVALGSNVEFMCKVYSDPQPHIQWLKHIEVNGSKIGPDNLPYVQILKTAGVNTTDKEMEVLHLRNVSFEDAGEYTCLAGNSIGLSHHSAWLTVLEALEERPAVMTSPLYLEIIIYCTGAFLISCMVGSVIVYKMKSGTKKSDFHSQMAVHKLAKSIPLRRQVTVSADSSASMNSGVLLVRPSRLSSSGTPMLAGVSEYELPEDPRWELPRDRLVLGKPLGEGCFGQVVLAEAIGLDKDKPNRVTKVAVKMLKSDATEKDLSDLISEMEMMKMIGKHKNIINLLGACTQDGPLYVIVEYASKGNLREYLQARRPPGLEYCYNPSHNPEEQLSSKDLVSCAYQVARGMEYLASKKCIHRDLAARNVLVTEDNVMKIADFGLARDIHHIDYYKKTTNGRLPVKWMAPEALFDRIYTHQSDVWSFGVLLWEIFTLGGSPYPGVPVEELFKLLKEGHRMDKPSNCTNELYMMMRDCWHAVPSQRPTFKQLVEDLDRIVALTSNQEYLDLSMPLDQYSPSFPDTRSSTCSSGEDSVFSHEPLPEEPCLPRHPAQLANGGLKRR
T4 sequence (P22455 22-802): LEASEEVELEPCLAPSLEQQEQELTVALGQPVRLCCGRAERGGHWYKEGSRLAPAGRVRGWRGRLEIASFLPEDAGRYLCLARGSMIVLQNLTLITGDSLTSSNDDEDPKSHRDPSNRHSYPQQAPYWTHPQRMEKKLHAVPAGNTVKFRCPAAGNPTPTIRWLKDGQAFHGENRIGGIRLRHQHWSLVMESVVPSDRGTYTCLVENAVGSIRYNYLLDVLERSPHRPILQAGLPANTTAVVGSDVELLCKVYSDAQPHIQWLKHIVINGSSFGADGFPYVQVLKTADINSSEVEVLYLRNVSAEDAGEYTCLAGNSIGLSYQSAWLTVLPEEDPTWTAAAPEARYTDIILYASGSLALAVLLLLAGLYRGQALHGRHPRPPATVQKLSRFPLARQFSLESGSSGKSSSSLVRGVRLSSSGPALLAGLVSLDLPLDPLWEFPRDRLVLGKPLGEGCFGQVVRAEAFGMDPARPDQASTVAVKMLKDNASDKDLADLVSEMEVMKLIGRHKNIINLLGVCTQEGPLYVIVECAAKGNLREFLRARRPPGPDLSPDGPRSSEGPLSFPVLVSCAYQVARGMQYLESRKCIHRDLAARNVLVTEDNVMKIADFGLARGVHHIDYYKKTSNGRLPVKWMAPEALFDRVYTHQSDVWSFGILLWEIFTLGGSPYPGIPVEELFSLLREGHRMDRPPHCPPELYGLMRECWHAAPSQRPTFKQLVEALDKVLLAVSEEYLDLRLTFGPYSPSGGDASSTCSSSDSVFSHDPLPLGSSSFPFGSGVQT
T2 sequence (P21802 22-821): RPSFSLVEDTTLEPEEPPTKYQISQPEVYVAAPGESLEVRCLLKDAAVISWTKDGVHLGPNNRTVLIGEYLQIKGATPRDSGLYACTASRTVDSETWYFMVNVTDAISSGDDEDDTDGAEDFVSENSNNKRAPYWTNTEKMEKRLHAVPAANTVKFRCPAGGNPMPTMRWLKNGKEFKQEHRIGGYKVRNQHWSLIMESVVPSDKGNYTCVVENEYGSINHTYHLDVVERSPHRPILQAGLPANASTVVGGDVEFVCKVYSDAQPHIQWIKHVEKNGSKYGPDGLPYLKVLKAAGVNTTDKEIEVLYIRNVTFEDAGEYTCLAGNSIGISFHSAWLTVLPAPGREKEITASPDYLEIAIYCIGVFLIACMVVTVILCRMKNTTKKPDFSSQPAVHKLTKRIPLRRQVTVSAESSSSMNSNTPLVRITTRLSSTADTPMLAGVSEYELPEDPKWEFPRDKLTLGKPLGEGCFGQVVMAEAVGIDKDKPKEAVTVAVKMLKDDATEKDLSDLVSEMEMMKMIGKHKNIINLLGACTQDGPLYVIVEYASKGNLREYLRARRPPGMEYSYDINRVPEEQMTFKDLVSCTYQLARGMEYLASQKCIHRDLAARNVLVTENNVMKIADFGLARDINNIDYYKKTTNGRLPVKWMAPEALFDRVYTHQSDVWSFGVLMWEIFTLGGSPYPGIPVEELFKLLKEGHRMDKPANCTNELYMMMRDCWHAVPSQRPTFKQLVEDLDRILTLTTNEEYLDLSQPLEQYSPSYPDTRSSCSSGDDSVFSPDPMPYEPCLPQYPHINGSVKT
T5 sequence (P22607 23-806 V555M): as the sequence (P22607 23-806) above, with V533M counted along it

CC(C)Oc1cc(N=S(C)(C)=O)ccc1Nc1ncc(Cl)c(-c2c[nH]c3ccccc23)n1 [Example 3, 5-chloro-N-[4-[[dimethyl(oxo)-λ^6-sulfanylidene]amino]-2-isopropoxy-phenyl]-4-(1H-indol-3-yl)pyrimidin-2-amine]
IC50 [1]: 100 nM | Kd (FGFR3): 4700 nM | Kd (FGFR2): 11000 nM | IC50 [2]: 73 nM | Kd (FGFR1): 4500 nM | Kd (FGFR4): 290 nM

Cc1cnc(Nc2ccc(N=S(C)(C)=O)nc2)nc1-c1c[nH]c2ccccc12 [Example 23, N-[6-[[dimethyl(oxo)-λ^6-sulfanylidene]amino]-3-pyridyl]-4-(1H-indol-3-yl)-5-methyl-pyrimidin-2-amine]
Kd (FGFR3 (V555M)): 1 nM | IC50 [1]: 118 nM | Kd (FGFR3): 12 nM | Kd (FGFR2): 6 nM | IC50 [2]: 132 nM | Kd (FGFR1): 8 nM | Kd (FGFR4): 130 nM

Cc1cc(Nc2ncc(C)c(-c3c[nH]c4ccccc34)n2)ccc1N=S(C)(C)=O [Example 24, N-[4-[[dimethyl(oxo)-λ^6-sulfanylidene]amino]-3-methyl-phenyl]-4-(1H-indol-3-yl)-5-methyl-pyrimidin-2-amine]
Kd (FGFR3 (V555M)): 1 nM | IC50 [1]: 33 nM | Kd (FGFR3): 10 nM | Kd (FGFR2): 7 nM | IC50 [2]: 60 nM | Kd (FGFR1): 4 nM | Kd (FGFR4): 87 nM

Cc1cnc(Nc2ccc(N=S(C)(C)=O)c(Cl)c2)nc1-c1c[nH]c2ccccc12 [Example 25, N-[3-chloro-4-[[dimethyl(oxo)-λ^6-sulfanylidene]amino]phenyl]-4-(1H-indol-3-yl)-5-methyl-pyrimidin-2-amine]
Kd (FGFR3 (V555M)): 2 nM | IC50 [1]: 63 nM | Kd (FGFR3): 13 nM | Kd (FGFR2): 9 nM | IC50 [2]: 117 nM | Kd (FGFR1): 7 nM | Kd (FGFR4): 89 nM

COc1cc(N=S2(=O)CCN(C)CC2)ccc1Nc1ncc(Cl)c(-c2c[nH]c3ccccc23)n1 [Example 38, 5-Chloro-4-(1H-indol-3-yl)-N-[2-methoxy-4-[(4-methyl-1-oxo-1,4-thiazinan-1-ylidene)-amino]phenyl]pyrimidin-2-amine]
Kd (FGFR3 (V555M)): 3 nM | IC50 [1]: 119 nM | Kd (FGFR3): 34 nM | Kd (FGFR2): 92 nM | IC50 [2]: 130 nM | Kd (FGFR1): 25 nM | Kd (FGFR4): 26 nM

Cc1cnc(Nc2ccc(N=S3(=O)CCN(C)CC3)cc2)nc1-c1c[nH]c2ccccc12 [Example 49, 4-(1H-Indol-3-yl)-5-methyl-N-[4-[(4-methyl-1-oxo-1,4-thiazinan-1-ylidene)amino]-phenyl]pyrimidin-2-amine]
Kd (FGFR3 (V555M)): 1 nM | IC50 [1]: 78 nM | Kd (FGFR3): 8 nM | Kd (FGFR2): 4 nM | IC50 [2]: 189 nM | Kd (FGFR1): 8 nM | Kd (FGFR4): 120 nM

Cc1cnc(Nc2ccc(S(=N)(=O)C3CC3)cc2)nc1-c1c[nH]c2ccccc12 (centres unmarked) [Example 51, N-[4-(Cyclopropyl-sulfonimidoyl)-phenyl]-4-(1H-indol-3-yl)-5-methyl-pyrimidin-2-amine]
Kd (FGFR3 (V555M)): 3 nM | IC50 [1]: 48 nM | Kd (FGFR3): 18 nM | Kd (FGFR2): 6 nM | IC50 [2]: 45 nM | Kd (FGFR1): 10 nM | Kd (FGFR4): 130 nM

CS(=N)(=O)c1ccc(Nc2ncc(Cl)c(-c3c[nH]c4ccccc34)n2)cc1 (centres unmarked) [Example 52, 5-Chloro-4-(1H-indol-3-yl)-N-[4-(methylsulfonimidoyl)-phenyl]pyrimidin-2-amine]
Kd (FGFR3 (V555M)): 6 nM | IC50 [1]: 76 nM | Kd (FGFR3): 24 nM | Kd (FGFR2): 9 nM | IC50 [2]: 83 nM | Kd (FGFR1): 27 nM | Kd (FGFR4): 390 nM

N=S1(=O)CCN(c2ccc(Nc3ncc(Cl)c(-c4c[nH]c5ccccc45)n3)cc2)CC1 [Example 53, 5-Chloro-N-[4-(1-imino-1-oxo-1,4-thiazinan-4-yl)phenyl]-4-(1H-indol-3-yl)pyrimidin-2-amine]
Kd (FGFR3 (V555M)): 1 nM | IC50 [1]: 22 nM | Kd (FGFR3): 11 nM | Kd (FGFR2): 3 nM | IC50 [2]: 31 nM | Kd (FGFR1): 5 nM | Kd (FGFR4): 74 nM

Cc1cnc(Nc2ccc(N3CCS(=N)(=O)CC3)cc2)nc1-c1c[nH]c2ccccc12 [Example 54, N-[4-(1-Imino-1-oxo-1,4-thiazinan-4-yl)phenyl]-4-(1H-indol-3-yl)-5-methyl-pyrimidin-2-amine]
Kd (FGFR3 (V555M)): 2 nM | IC50 [1]: 33 nM | Kd (FGFR3): 13 nM | Kd (FGFR2): 7 nM | IC50 [2]: 44 nM | Kd (FGFR1): 10 nM | Kd (FGFR4): 100 nM

CN1CCS(=O)(=Nc2ccc(Nc3ncc(Cl)c(-c4c[nH]c5ccccc45)n3)cc2)CC1 [Example 55, 5-Chloro-4-(1H-indol-3-yl)-N-[4-[(4-methyl-1-oxo-1,4-thiazinan-l-ylidene)amino]-phenyl]pyrimidin-2-amine]
Kd (FGFR3 (V555M)): 2 nM | IC50 [1]: 49 nM | Kd (FGFR3): 23 nM | Kd (FGFR2): 6 nM | IC50 [2]: 40 nM | Kd (FGFR1): 13 nM | Kd (FGFR4): 110 nM

CN(C)C/C=C/C(=O)Nc1ccc2c(ccn2-c2nc(Nc3ccc(N=S(C)(C)=O)cc3)ncc2Cl)c1 [Example 67, (E)-N-[1-[5-Chloro-2-[4-[[dimethyl(oxo)-λ^6-sulfanylidene]amino]anilino]-pyrimidin-4-yl]indol-5-yl]-4-(dimethylamino)but-2-enamide]
Kd (FGFR3 (V555M)): 9.8 nM | IC50 [1]: 421 nM | Kd (FGFR3): 62 nM | Kd (FGFR2): 120 nM | IC50 [2]: 1450 nM | Kd (FGFR1): 130 nM | Kd (FGFR4): 510 nM

C=CC(=O)Nc1ccc2c(ccn2-c2nc(Nc3ccc(N=S4(=O)CCN(C)CC4)cc3)ncc2Cl)c1 [Example 69, N-[1-[5-Chloro-2-[4-[(4-methyl-1-oxo-1,4-thiazinan-1-ylidene)amino]anilino]pyrimidin-4-yl]indol-5-yl]prop-2-enamide]
Kd (FGFR3 (V555M)): 3.8 nM | IC50 [1]: 82 nM | Kd (FGFR3): 14 nM | Kd (FGFR2): 28 nM | IC50 [2]: 14 nM | Kd (FGFR1): 33 nM | Kd (FGFR4): 160 nM

C=CC(=O)Nc1ccc2c(ccn2-c2nc(Nc3ccc(S(C)(=N)=O)cc3)ncc2C)c1 (centres unmarked) [Example 74, N-[1-[5-Methyl-2-[4-(methylsulfonimidoyl)anilino]-pyrimidin-4-yl]indol-5-yl]prop-2-enamide]
Kd (FGFR3 (V555M)): 20 nM | IC50 [1]: 713 nM | Kd (FGFR3): 41 nM | Kd (FGFR2): 77 nM | IC50 [2]: 9 nM | Kd (FGFR1): 140 nM | Kd (FGFR4): 560 nM

CCC(=O)Nc1cccc2c1ccn2-c1nc(Nc2ccc(N3CCS(=N)(=O)CC3)cc2)ncc1Cl [Example 83, N-[1-[5-Chloro-2-[4-(1-imino-1-oxo-1,4-thiazinan-4-yl)anilino]pyrimidin-4-yl]indol-4-yl]propanamide]
Kd (FGFR3 (V555M)): 3 nM | Kd (FGFR3): 59 nM | Kd (FGFR2): 79 nM | Kd (FGFR1): 86 nM | Kd (FGFR4): 1100 nM

C=CC(=O)Nc1ccc2c(ccn2-c2nc(Nc3ccc(N=S(C)(C)=O)c(F)c3)ncc2Cl)c1C [Example 84, N-[1-[5-Chloro-2-[4-[[dimethyl(oxo)-λ^6-sulfanylidene]amino]-3-fluoro-anilino]pyrimidin-4-yl]-4-methyl-indol-5-yl]prop-2-enamide]
Kd (FGFR3 (V555M)): 11 nM | Kd (FGFR3): 150 nM | Kd (FGFR2): 330 nM | Kd (FGFR1): 390 nM | Kd (FGFR4): 2300 nM

C=CC(=O)Nc1ccc2c(cnn2-c2nc(Nc3ccc(N=S(C)(C)=O)cc3)ncc2Cl)c1 [Example 86, N-[1-[5-Chloro-2-[4-[[dimethyl(oxo)-λ^6-sulfanylidene]amino]anilino]-pyrimidin-4-yl]indazol-5-yl]prop-2-enamide]
Kd (FGFR3 (V555M)): 7.1 nM | Kd (FGFR3): 46 nM | Kd (FGFR2): 63 nM | Kd (FGFR1): 90 nM | Kd (FGFR4): 240 nM

CS(C)(=O)=Nc1ccc(Nc2ncc(Cl)c(-n3ncc4cc(N)ccc43)n2)cc1 [Example 87, 1-[5-Chloro-2-[4-[[dimethyl(oxo)-λ^6-sulfanylidene]amino]anilino]-pyrimidin-4-yl]indazol-5-amine]
Kd (FGFR3 (V555M)): 16 nM | Kd (FGFR3): 130 nM | Kd (FGFR2): 130 nM | Kd (FGFR1): 160 nM | Kd (FGFR4): 2400 nM

C=CC(=O)Nc1ccc2c(-c3nc(Nc4ccc(S(C)(=N)=O)cc4)ncc3Cl)c[nH]c2c1 (centres unmarked) [Example 89, N-[3-[5-chloro-2-[4-(methylsulfonimidoyl)anilino]pyrimidin-4-yl]-1H-indol-6-yl]prop-2-enamide]
Kd (FGFR3 (V555M)): 7.5 nM | Kd (FGFR3): 70 nM | Kd (FGFR2): 50 nM | Kd (FGFR1): 76 nM | Kd (FGFR4): 510 nM
